Assay results taken from ChEMBL document CHEMBL4418317, “Piperidinyl- and piperazinyl-substituted heteroaromatic carboxamides as modulators of gpr6” (2018).

What follows are molecules tested against G-protein coupled receptor 6 (Homo sapiens, UniProt P46095) (assay: Modulator activity at GPR6 receptor (unknown origin) expressed in CHO-K1 cells assessed as inhibition of constitutive cAMP activity incubated for 45 mins by Eu-cAMP tracer based HTRF Ultra cAMP assay).
Chain of G-protein coupled receptor 6 (P46095 whole entry): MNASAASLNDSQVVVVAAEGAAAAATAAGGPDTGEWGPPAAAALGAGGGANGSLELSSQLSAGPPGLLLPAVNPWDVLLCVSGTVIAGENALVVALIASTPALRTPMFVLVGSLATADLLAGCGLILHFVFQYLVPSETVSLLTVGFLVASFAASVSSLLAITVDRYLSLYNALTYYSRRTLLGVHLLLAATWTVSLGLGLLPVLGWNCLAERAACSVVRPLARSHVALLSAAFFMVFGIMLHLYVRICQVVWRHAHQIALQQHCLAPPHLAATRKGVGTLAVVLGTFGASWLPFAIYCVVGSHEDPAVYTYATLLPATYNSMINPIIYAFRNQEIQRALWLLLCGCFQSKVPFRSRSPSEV
Type: functional, cell-based
`Cc1nc(C(=O)Nc2cc(C#N)ccc2N2CCC(Oc3ccc(F)cc3F)CC2)no1` was tested, and the EC50 was 2000 nM. With `N#Cc1ccc(N2CCC(Oc3ccc(F)cc3F)CC2)c(NC(=O)c2cccn(Cc3ccccc3)c2=O)c1` the EC50 was 2000 nM. In the case of `Cn1cccc(C(=O)Nc2cc(C#N)ccc2N2CCC(Oc3cc(F)cc(F)c3)CC2)c1=O`, the EC50 is reported as 2000 nM.
